Results from US20130096067A1, “DROSOPHILA TUMOR STEM CELL MODEL AND USES THEREOF” (priority 2011, published 2013).
Read-outs that look alike come from different tables or passages of the source.

Test system: Raf-1^gof intestinal tumors
Conditions: for Log2 (fold) of luciferase activity relative to DMSO controls / Fold (luciferase activity relative to DMSO controls): ICCB compounds fed in vials to flies with one-day old Raf-1^gof tumors
[1] = screen of 480 ICCB compounds in vials, compounds fed to flies with one-day old Raf-1^gof tumors, assessed three days later, esg-Gal4 luciferase
[2] = screen of 480 ICCB compounds in vials, compounds fed to flies with one-day old Raf-1^gof tumors, assessed three days later, esg-Gal4 luciferase, averaged from multiple wells
[3] = assessed three days later, averaged from multiple wells
Note: test concentration or dose not given here.

Row | SMILES | Log2 (fold) (luciferase activity, log2 of the fold difference relative to DMSO controls) [1] | Fold (luciferase activity, fold difference relative to DMSO controls) [2] | further results
1 | O=C(O)c1ccc(/C2=C3\C=CC(=N3)/C(c3ccc(C(=O)O)cc3)=c3/cc/c4[n]3[Mn]([Cl])[n]3c2ccc3/C(c2ccc(C(=O)O)cc2)=C2/C=CC(=N2)\C=4c2ccc(C(=O)O)cc2)cc1 [MnTBAP] | −0.245 | 0.844 | 
2 | CCOC(=O)C1=C(C)NC(=S)NC1c1cccc(O)c1 (stereo not shown) [Monastrol] | −0.607 | 0.656 | 
3 | COc1c(C)c2c(c(O)c1C/C=C(\C)CCC(=O)O)C(=O)OC2 [Mycophenolic acid] | −0.577 | 0.670 | 
4 | CC(C)n1cnc2c(NCc3ccccc3)nc(NCCO)nc21 [N9-Isopropylolomoucine] | −0.490 | 0.712 | 
5 | CCCCCCCCCCCCC/C=C/[C@@H](O)[C@H](CO)N(C)C [N,N-DIMETHYLSPHINGOSINE] | −0.487 | 0.713 | 
6 | CCCCC/C=C\C\C=C/C=C/C=C/[C@@H](SCC(NC(C)=O)C(=O)O)[C@@H](O)CCCC(=O)O (stereo partly shown) [N-ACETYL-LEUKOTRIENE E4] | −0.318 | 0.802 | 
7 | CCCCC/C=C\C/C=C\C/C=C\C/C=C\CCCC(=O)NCC(=O)O [N-ARACHIDONOYLGLYCINE] |  |  | Fold (luciferase activity, fold difference relative to DMSO controls) (in vivo): 0.664; Log2 (fold) (luciferase activity, log2 of the fold difference relative to DMSO controls) (in vivo): −0.590
8 | CCCCC/C=C\C/C=C\CCCCCCCC(=O)NCC(=O)O [N-LINOLEOYLGLYCINE] | −0.285 | 0.821 | 
9 | COC(=O)C1=C(C)NC(C)=C(C(=O)OCCN(C)Cc2ccccc2)C1c1cccc([N+](=O)[O-])c1 (stereo not shown) [NICARDIPINE] | −0.433 | 0.741 | 
10 | COC(=O)C1=C(C)NC(C)=C(C(=O)OC)C1c1ccccc1[N+](=O)[O-] [NIFEDIPINE] | −0.417 | 0.749 | 
11 | O=C(O)c1cccnc1Nc1cccc(C(F)(F)F)c1 [NIFLUMIC ACID] |  |  | Log2 (fold) of luciferase activity relative to DMSO controls (assessed three days later): −0.201; Fold (luciferase activity relative to DMSO controls) [3]: 0.870 fold
12 | COC(=O)C1=C(C)NC(C)=C(C(=O)OCCCN2CCC(c3ccccc3)(c3ccccc3)CC2)[C@H]1c1cccc([N+](=O)[O-])c1 [NIGULDIPINE] |  |  | Fold (luciferase activity, fold difference relative to DMSO controls) (in vivo): 0.812; Log2 (fold) (luciferase activity, log2 of the fold difference relative to DMSO controls) (in vivo): −0.301
13 | COCCOC(=O)C1=C(C)NC(C)=C(C(=O)OC(C)C)C1c1cccc([N+](=O)[O-])c1 (stereo not shown) [NIMODIPINE] | −0.238 | 0.848 | 
14 | CCOC(=O)C1=C(C)NC(C)=C(C(=O)OC)C1c1cccc([N+](=O)[O-])c1 (stereo not shown) [NITRENDIPINE] | −0.400 | 0.758 | 
15 | O=C(O)c1cc([N+](=O)[O-])ccc1NCCCc1ccccc1 [NPPB] | −0.439 | 0.738 | 
16 | CS(=O)(=O)Nc1ccc([N+](=O)[O-])cc1OC1CCCCC1 [NS-398] | −0.592 | 0.663 | 
17 | O=c1[nH]c2cc(C(F)(F)F)ccc2n1-c1cc(C(F)(F)F)ccc1O [NS-1619] | −0.495 | 0.709 | 
18 | O=C1C(SCCO)=C(SCCO)C(=O)c2ccccc21 [NSC-95397] | −0.495 | 0.709 | 
19 | CCC(C)[C@H](NS(=O)(=O)c1cccc2ccccc12)C(=O)N[C@H](C=O)Cc1c[nH]c2ccccc12 (stereo partly drawn) [NapSul-Ile-Trp-CHO] | −0.554 | 0.681 | 
20 | CS(=O)(=O)Nc1ccc([N+](=O)[O-])cc1Oc1ccccc1 [Nimesulide] | −0.264 | 0.833 | 
21 | CCCCCCCCCCCCCCCCCCc1ccc(C(=O)/C=C/C(=O)O)cc1 [OBAA] |  |  | Log2 (fold) of luciferase activity relative to DMSO controls (assessed three days later): −0.169; Fold (luciferase activity relative to DMSO controls) [3]: 0.890 fold

Row | SMILES | Log2 (fold) (luciferase activity, log2 of the fold difference relative to DMSO controls) [1] | Fold (luciferase activity, fold difference relative to DMSO controls) [2] | further results
22 | CCCCCCCCCCCCCCCCOC[C@H](COP(=O)([O-])OCC[N+](C)(C)C)OC(C)=O [PAF C16] |  |  | Log2 (fold) of luciferase activity relative to DMSO controls (assessed three days later): −0.190; Fold (luciferase activity relative to DMSO controls) [3]: 0.876 fold
23 | CCCCCCCC/C=C\CCCCCCCCOC[C@H](COP(=O)([O-])OCC[N+](C)(C)C)OC(C)=O [PAF C18:1] | −0.420 | 0.747 | 
24 | CCCCCCCCCCCCCCCCCCOC[C@H](COP(=O)([O-])OCC[N+](C)(C)C)OC(C)=O [PAF C18] | −0.455 | 0.729 | 
25 | CCCCCCCCCCCCCCCC(=O)NCCO [PALMITYLETHANOLAMIDE] | −0.486 | 0.714 | 
26 | CC(C)(O)[C@H]1O[C@H]2CC[C@@]3(C)[C@@](O)(CC[C@H]4Cc5c([nH]c6ccccc56)[C@@]43C)C2=CC1=O [PAXILLINE] |  |  | Log2 (fold) of luciferase activity relative to DMSO controls (assessed three days later): −0.078; Fold (luciferase activity relative to DMSO controls) [3]: 0.948 fold
27 | COC(=O)C1=C(C)NC(C)=C(C(=O)OCCSc2ccccc2)C1C (stereo not shown) [PCA 4248] |  |  | Log2 (fold) of luciferase activity relative to DMSO controls (assessed three days later): −0.180; Fold (luciferase activity relative to DMSO controls) [3]: 0.883 fold
28 | COc1cccc(-c2cc(=O)c3ccccc3o2)c1N [PD 98059] | −0.338 | 0.791 | 
29 | Cc1ccc(N(CC2=NCCN2)c2cccc(O)c2)cc1 [PHENTOLAMINE] | −0.321 | 0.800 | 
30 | O=C1NC(=O)C(c2ccccc2)(c2ccccc2)N1 [PHENYTOIN] | −0.300 | 0.812 | 
31 | CCCCCCCCCCCCCCCC(=O)OCC(COP(=O)(O)O)OC(=O)CCCCCCCCCCCCCCC (stereo not shown) [PHOSPHATIDIC ACID, DIPALMITOYL] | −0.288 | 0.819 | 
32 | O=c1[nH]c2ccccc2n1C1CCN(CCCC(c2ccc(F)cc2)c2ccc(F)cc2)CC1 [PIMOZIDE] | −0.425 | 0.745 | 
33 | Cc1ccc(-c2nn(C(C)(C)C)c3ncnc(N)c23)cc1 [PP1] |  |  | Log2 (fold) of luciferase activity relative to DMSO controls (assessed three days later): 0.503; Fold (luciferase activity relative to DMSO controls) [3]: 1.418 fold
34 | CC(C)(C)n1nc(-c2ccc(Cl)cc2)c2c(N)ncnc21 [PP2] |  |  | Log2 (fold) of luciferase activity relative to DMSO controls (assessed three days later): 0.062; Fold (luciferase activity relative to DMSO controls) [3]: 1.044 fold
35 | O=C1C2CCN(CC2)C1(CO)CO [PRIMA-1] |  |  | Log2 (fold) of luciferase activity relative to DMSO controls (assessed three days later): −0.110; Fold (luciferase activity relative to DMSO controls) [3]: 0.926 fold
36 | CCN(CC)CCNC(=O)c1ccc(N)cc1 [PROCAINAMIDE] | −0.346 | 0.787 | 
37 | CCCNCC(O)COc1ccccc1C(=O)CCc1ccccc1 (stereo not shown) [PROPAFENONE] | −0.214 | 0.862 | 
38 | CCCCC[C@H](O)/C=C/[C@H]1C=CC(=O)[C@@H]1CCCCCCC(=O)O [PROSTAGLANDIN A1] | −0.522 | 0.696 | 
39 | CCCCC[C@H](O)/C=C/[C@H]1C=CC(=O)[C@@H]1C/C=C\CCCC(=O)O [PROSTAGLANDIN A2] | −0.295 | 0.815 | 
40 | CCCCC[C@H](O)/C=C/C1=C(CCCCCCC(=O)O)C(=O)CC1 [PROSTAGLANDIN B1] | −0.408 | 0.753 | 
41 | CCCCC[C@H](O)/C=C/C1=C(C/C=C\CCCC(=O)O)C(=O)CC1 [PROSTAGLANDIN B2] | −0.330 | 0.796 | 
